Results on 13 molecules are retold here after patent US20260223850A1, “SUBSTITUTED PYRROLIDONE COMPOUND, PREPARATION METHOD THEREFOR, COMPOSITION AND APPLICATION THEREOF” (QINGDAO KINGAGROOT CHEMICAL COMPOUND CO., LTD., priority 2023, published 2026).

The mortality is the percentage killed. The low end stands for more survivors, the high end for fewer survivors.

One data set has as its system Echinochloa phyllopogon. As to the kind of experiment: Seedling stage sealing experiment for water-seeding. Type of data set: in vivo. The following applies: 120 g a.i./ha, 15 days, fresh weight control rate. The method in brief:
(§1)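 Seeds broadcast on soil in nutrition bowls, covered, kept moist in a water-filled box; compound in acetone diluted with water and spray-tower applied at 120, 60, 30 and 15 g a.i./ha, triplicate. Scored after 15 days in greenhouse on a 0–9 scale of fresh-weight growth control, averaged.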

For the next data set, the system named is Huaidao (rice cultivar). The data set can be described thus: Seedling stage sealing experiment for water-seeding (crop safety). Type of data set: in vivo. The note with it: 120 g a.i./ha, 15 days, fresh weight control rate; for Huaidao (rice cultivar) plant damage level: seedling stage sealing. An outline of the steps:
as §1

Another data set relates to Rice sheath blight. The data set can be described thus: Fungicidal activity assay, petri dish method. The note with it: 400 ppm, 25° C., after 4 days. Type of data set: cell-based. The method, then:
(§2) Petri dish method: The drug agent was dissolved with acetone, diluted with sterile water, and set to different levels of mass concentrations according to its activity. Under aseptic operation conditions, the pre-melted sterilized medium was quantitatively added into sterilized flasks according to the test treatment. The drug solutions were quantitatively aspirated in order from low to high concentrations, added into the above-mentioned flasks, and shaken well, respectively. Next, equal amounts of the solution were poured into 3 petri dishes with a diameter of 6 cm to prepare drug-containing plates with corresponding concentrations. In the test, a treatment without drugs was set up as the blank control and each treatment was repeated 3 times. A fungus cake was cut out from the edge of the colony of the cultured pathogens using a sterile hole puncher with a diameter of 3 mm under sterile conditions. The fungus cake was inoculated into the center of a drug-containing plate using an inoculator, with the mycelia facing up, covered with a plate cover, and cultured in an incubator at 25° C. The growth of pathogen mycelia was investigated according to the fungal growth in the blank control petri dishes after 4 days. The diameters of the colonies were measured with a caliper in millimeters (mm). Each colony was vertically measured for diameters once each by the cross method and then averaged. Based on the investigation results, the mycelium growth inhibition rate of each treatment concentration on the test target fungi was calculated in accordance with Equation (1) and (2). The unit was percentage (%).
(§3) [formula] • wherein: D—Increase of colony diameter; D1—Diameter of colony; D2—Diameter of fungus cake.
(§4) [formula] • wherein: I—Mycelium growth inhibition rate; D0—Increase of colony diameter of blank control; Dt—Increase of colony diameter of drug treatment.

The next data set concerns Tomato gray mold. The data set can be described thus: Fungicidal activity assay, petri dish method. The note with it: 25° C., after 4 days. Type of data set: cell-based. The method, then: as §2, §3, §4
Another data set relates to Mythimna separata. The data set can be described thus: Insecticidal activity assay, spraying method. The data set is classed as in vivo. The note with it: 3rd instar, spray, 48 h after drug application. The method, then:
(§5) Spraying method: the technical material was weighed and dissolved with acetone, and the drug liquid was diluted with distilled water to different concentrations. The 2nd instar Spodoptera frugiperda test insects or the 3rd instar Mythimna separata test insects reared indoors with consistent physiological conditions were selected. Ten test insects were picked into each petri dish. Two 2 cm-long corn leaves were placed in the petri dish and sprayed using a spray tower. Each dosage was repeated 3 times, with acetone of the corresponding concentration as a control. After drug application, the insects were transferred to and reared in a condition where the temperature was 25° C. and the humidity was 60%. The results were investigated 48 h after drug application and the death number per treatment was collected, respectively. The mortality was calculated in accordance with the following equation: Mortality (%)=(Number of dead insects/Number of test insects)×100.

Another data set concerns Spodoptera frugiperda. The data set can be described thus: Insecticidal activity assay, spraying method. Type of data set: in vivo. The following applies: 2nd instar, spray, 48 h after drug application; for Spodoptera frugiperda/% (mortality): 500 ppm. The method, then: as §5
The subject of another data set is Digitaria sanguinalis. As to the kind of experiment: Seedling stage sealing experiment for water-seeding. The data set is classed as in vivo. The note with it: 120 g a.i./ha, seedling stage sealing, 15 days, fresh weight control rate. An outline of the steps:
as §1

For another data set, the system named is Echinochloa crusgalli. The description is as above. Type of data set: in vivo. The following applies: 120 g a.i./ha, 15 days, fresh weight control rate.
Another data set concerns Leptochloa chinensis. Described as above. The data set is classed as in vivo. The note with it: 120 g a.i./ha, 15 days, fresh weight control rate. An outline of the steps:
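Seeds sown in soil-filled bowls kept moist in water-filled boxes; compound in acetone diluted with water and spray-applied at 120, 60, 30 and 15 g a.i./ha, triplicate. After 15 days in greenhouse, fresh-weight growth control scored on a 0–9 scale (9 = dead, 0 = no effect), averaged.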

A further data set deals with Apple ring rot. The data set can be described thus: Fungicidal activity assay, petri dish method. The data set is classed as cell-based. The following applies: 400 ppm, 25° C., after 4 days. How it is done:
as §2, §3, §4

The next data set has as its system weeds. As to the kind of experiment: Activity assay of compositions, post-emergence spray treatment of stems and leaves (F). The following applies: Paspalum distichum, F. Type of data set: in vivo. The method, then: The required active ingredient B was purchased from a reagent company or a technical material manufacturer or synthesized by a conventional method. The technical materials were all dissolved with acetone solvents and diluted with aqueous solution of 0.1% Tween® 80 emulsifier, which should be used immediately after dilution.
Weeds were cultivated by the pot culture method. […] Weed seeds with plump and uniform grains were selected, soaked in lukewarm water at 25° C. for 6 hours, and accelerated to germinate in a 28° C. biochemical incubator (in darkness). The weed seeds that had just germinated were evenly placed on the surface of the soil and then covered with 0.5-1 cm soil according to the sizes of seeds.
The weeds were cultured in a controllable sunlight greenhouse at 20-30° C., in natural light and with relative humidity of 57%-72%.
Each treatment was repeated 4 times. Three pots with 20 weed seeds sowed per pot were treated each time.
The drug was applied once in total in the experiment. When at 1.5-2 leaf stage, the weeds were thinned out to maintain 10 strains per pot. Thirty strains were kept in each treatment and then continued to be cultured until the 3-4 leaf stage for further treatment.
The well-cultured test materials were evenly placed on a 0.5 m^2 platform and foliage-sprayed by the 3WP-2000-type walking spray tower at a dosage of […] and a spray pressure of 0.3 MPa. After all the drug solution was sprayed, the air valve was closed. And 30 seconds later, the door of the spray tower was opened, and the nutritional bowl was taken out. Next, the air valve was opened, and the spray tube was cleaned by spraying 50 mL of water. The test materials were transferred to and routinely cultured in a greenhouse after the treatment.
A method for investigating absolute numbers was employed. The whole seedlings of the survival weeds were cut along the soil surface with a blade, and the fresh weight of the weeds was weighed by an analytical balance. For dead weeds, the fresh weight thereof was considered zero.
The investigation was performed 21 days after the treatment for once in total.
The theoretical fresh weight inhibition rate of a mixed combination of each treatment was calculated by the Gowing method (E0═X+Y−X*Y/100), then compared with the measured inhibition rate (E) to evaluate the type of the combined action of the combination of the two on weeds. The combined action was a synergistic effect when E−E0 >10%; an antagonistic effect when E−E0<−10%; an additional effect when −10%≤E−E0≤10%. An optimal ratio was determined according to factors such as actual control effects, characteristics of herbicides, balance of the formulation, etc. In the formula, X represents the fresh weight inhibition rate of the active ingredient A in a dosage of P; Y represents the fresh weight inhibition rate of the active ingredient B in a dosage of Q. The statistical results are shown in Table 6.

Where [1] appears, read: spray, seedling stage sealing for water-seeding.

In the case of `C=CCn1ncc(NC(=O)[C@H]2C(=O)N(C)C[C@@H]2c2cc(C)cc(C)c2)c1Cl` [270′], the “Echinochloa phyllopogon activity level (growth control rate)” value (“Echinochloa phyllopogon activity level” below) with Echinochloa phyllopogon (seedling stage sealing) was 6 (Level 6: growth control rate greater than or equal to 70% and less than 80%). Moreover, the “Huaidao (rice cultivar) plant damage level” value in the data set with Huaidao (rice cultivar) was 0. In the data set with Rice sheath blight, the “Rice sheath blight/% (mycelium growth inhibition rate)” value is listed as 61%. Also, in the data set with Tomato gray mold (400 ppm), the “Tomato gray mold/% (mycelium growth inhibition rate)” value is given as 51%. Besides, the “Mythimna separata/% (mortality)” value in the data set on Mythimna separata (500 ppm) amounted to 75%. Further, in the data set on Spodoptera frugiperda, the “Spodoptera frugiperda/% (mortality)” value was found to be 55%.

Consider `Cc1cc(C)cc([C@H]2CN(C)C(=O)[C@@H]2C(=O)Nc2cnn(C)c2C2CC2)c1` [277′], for which, in the data set with Digitaria sanguinalis, the “Digitaria sanguinalis activity level (growth control rate)” value is 6 (Level 6: growth control rate greater than or equal to 70% and less than 80%). The “Echinochloa crusgalli activity level (growth control rate)” value (shortened to “Echinochloa crusgalli activity level”) in the data set with Echinochloa crusgalli (seedling stage sealing) amounted to 9. The “Mythimna separata/% (mortality)” value with Mythimna separata (100 ppm) was found to be 95%. In the data set with Leptochloa chinensis, the “Leptochloa chinensis activity level (growth control rate)” value amounted to 9.

In the case of `Cc1cc(C)cc([C@H]2CN(C)C(=O)[C@@H]2C(=O)Nc2cnn(C)c2-c2ccc(Cl)cc2)c1` [281′], the “Mythimna separata/% (mortality)” value in the data set on Mythimna separata (500 ppm) is 60%.

Take `Cc1cc([C@H]2CN(C)C(=O)[C@@H]2C(=O)Nc2cnn(C)c2Cl)nn1C(F)F` [340′]: the mortality at 500 ppm in the data set on Mythimna separata (Mythimna separata, 500 ppm) turned out to be 100%; in the data set with Spodoptera frugiperda (Spodoptera frugiperda), 87%.

For `CN1C[C@H](c2cc3ccccc3o2)[C@@H](C(=O)Nc2cnn(C)c2Cl)C1=O` [356′], the “Echinochloa crusgalli activity level” value in the data set with Echinochloa crusgalli (seedling stage sealing) is 5 (Level 5: growth control rate greater than or equal to 50% and less than 70%). Further, in the data set on Apple ring rot, the “Apple ring rot/% (mycelium growth inhibition rate)” value turned out to be 83%. In the data set on Tomato gray mold (400 ppm), the “Tomato gray mold/% (mycelium growth inhibition rate)” value stood at 57%.

Regarding `CCn1ncc(NC(=O)[C@H]2C(=O)N(C)C[C@@H]2c2cc(C)cc(C)c2)c1Cl` [418′], in the data set on Echinochloa crusgalli (seedling stage sealing), the “Echinochloa crusgalli activity level” value stood at 9. Also, the “Echinochloa phyllopogon activity level” value in the data set on Echinochloa phyllopogon (seedling stage sealing) was determined as 9. Besides, the “Tomato gray mold/% (mycelium growth inhibition rate)” value with Tomato gray mold (500 ppm) amounted to 96%.

On to `C#CCn1ncc(NC(=O)[C@H]2C(=O)N(C)C[C@@H]2c2cc(C)cc(C)c2)c1Cl` [420′], for which the “Echinochloa crusgalli activity level” value in the data set with Echinochloa crusgalli (seedling stage sealing) was 9. Besides, the “Echinochloa phyllopogon activity level” value with Echinochloa phyllopogon (seedling stage sealing) was 9. For the same molecule, in the data set on Huaidao (rice cultivar), the “Huaidao (rice cultivar) plant damage level” value turned out to be 0. In addition, in the data set on Mythimna separata (500 ppm), the “Mythimna separata/% (mortality)” value is given as 90%. For the same molecule, the “Spodoptera frugiperda/% (mortality)” value in the data set on Spodoptera frugiperda came to 75%.

Regarding `Cc1cc(C)cc([C@H]2CN(C)C(=O)[C@@H]2C(=O)Nc2cnn(-c3ccccc3)c2Cl)c1` [421′], in the data set on Echinochloa crusgalli (seedling stage sealing), the “Echinochloa crusgalli activity level” value is on record as 9. Moreover, the “Huaidao (rice cultivar) plant damage level” value in the data set on Huaidao (rice cultivar) came to 0. Besides, the “Mythimna separata/% (mortality)” value in the data set on Mythimna separata (500 ppm) is recorded as 75%. In addition, the “Spodoptera frugiperda/% (mortality)” value in the data set on Spodoptera frugiperda was determined as 65%.

Consider `Cc1cc(C)cc([C@H]2CN(C)C(=O)[C@@H]2C(=O)Nc2cnn(C(=O)OC(C)(C)C)c2Cl)c1` [491′], for which, in the data set on Mythimna separata (500 ppm), the “Mythimna separata/% (mortality)” value is 70%. For the same molecule, in the data set with Spodoptera frugiperda, the “Spodoptera frugiperda/% (mortality)” value is recorded as 60%.

With `Cc1cc(C)cc([C@H]2CN(C)C(=O)[C@@H]2C(=O)Nc2cnn(C)c2C=O)c1` [500′], in the data set with Mythimna separata (500 ppm), the “Mythimna separata/% (mortality)” value is reported as 70%. Besides, the “Spodoptera frugiperda/% (mortality)” value in the data set with Spodoptera frugiperda stood at 60%.

`Cc1cc(Cl)cc([C@H]2CN(C)C(=O)[C@@H]2C(=O)Nc2cnn(C)c2Cl)c1` [504′]: in the data set with Echinochloa crusgalli (setting [1]), the “Echinochloa crusgalli activity level” value is on record as 9. Further, in the data set on Echinochloa phyllopogon (setting [1]), the “Echinochloa phyllopogon activity level” value came out at 9. The “Huaidao (rice cultivar) plant damage level (growth control rate)” value in the data set on Huaidao (rice cultivar) (setting [1]) was found to be 0. Moreover, the “Apple ring rot/% (mycelium growth inhibition rate)” value with Apple ring rot came to 80%. Also, in the data set with Rice sheath blight, the “Rice sheath blight/% (mycelium growth inhibition rate)” value was 83%.

In the case of `Cc1ccc([C@H]2CN(C)C(=O)[C@@H]2C(=O)Nc2cnn(C)c2Cl)o1` [522′], in the data set with Mythimna separata (500 ppm), the “Mythimna separata/% (mortality)” value was determined as 70%. Further, the “Spodoptera frugiperda/% (mortality)” value in the data set on Spodoptera frugiperda stood at 60%.

As for `CCC(=O)Nc1ccc(Cl)c(Cl)c1` [Propanil, propanil, reference compound], the “Control effect of B applied alone in a corresponding dose (%)” value was determined as 48.3% in the data set on weeds (B 300 g a.i./ha) and 56.1% in the data set with weeds (B 600 g a.i./ha).
